Earlier results as cited in US20090054305A1, “Mixtures of Amylin and Insulin” (Novo Nordisk A/S, priority 2006, published 2009).
Ends that are not written are not given here.

How the values were obtained:
[1] = compared to human amylin
[2] = treated test animals, e.g. provoking marked hyperlactemia followed by hyperglycemia

Row | Substance | solubility and stability characteristics [1] | amylin activity in vivo [2]
1 | ^18Arg^25, 28Pro-h-amylin | more desirable solubility and stability characteristics | amylin activity in vivo
2 | ^25Pro^26Val^28, 29Pro-h-amylin | more desirable solubility and stability characteristics | –
3 | ^28Pro-h-amylin | – | amylin activity in vivo
4 | des-^1Lys-h-amylin (CNTATCATQRLANFLVHSSNNFGAILSSTNVGSNTY; not fully specified (C-terminus, bridges); ends and bridges not checked; UniProt P10997 34-70, looked up, variant K1*) [human amylin analog where the lysine in position 1 is lacking] | – | amylin activity in vivo
5 | des-^1Lys^18Arg^25, 28Pro-h-amylin | – | amylin activity in vivo
